{"source": "patent US20240408114A1", "about": "“METHODS FOR PREVENTING AND TREATING ACUTE KIDNEY INJURY” (The Johns Hopkins University, priority 2021, published 2024)", "key": {"kidney T cells": {"tested_on": "kidney T cells", "test": "T cell phenotypes in normal steady-state kidneys", "type": "in vivo, mouse", "settings": "normal mice, same dosage schedule; vs vehicle", "method": "To test whether this immunologic effect was derived from the glutamine blockade or attenuated kidney injury, we studied normal mice treated with JHU083 or vehicle with the same dosage schedule. […] Therefore, changes seen in these markers in post-ischemic kidneys are likely through JHU083-mediated glutamine blockade.\nKMNCs were isolated according to our previously described Percoll density gradient protocol. Ascon et al., 2006. Briefly, decapsulated kidneys were immersed and incubated in collagenase D (2 mg/mL; Sigma-Aldrich) solution for 30 min at 37° C. Samples were strained through 70 µm cell strainer (BD Bioscience, Franklin Lakes, NJ), washed, and resuspended in 40% Percoll (GE Healthcare, Chicago, IL) followed by gentle overlaying onto 80% Percoll. After centrifugation at 1,500 g for 30 min in brake off mode at room temperature, KMNCs were collected from interface between 40% and 80% Percoll. […] Cells were counted on hemocytometer using trypan blue exclusion under a microscope.\nCells were washed once with phosphate buffered saline (PBS) and stained with viability dye Zombie NIR Fixable Viability (BioLegend, San Diego, CA) for 15 min at room temperature. […] Samples were analyzed by 4-laser Aurora spectral flow cytometer (Cytek, Fremont, CA). […]"}, "[1]": {"settings": "1.83 mg/kg every other day i.p.; even with a longer duration of treatment; cited from earlier work"}, "glutaminase": {"tested_on": "glutaminase", "test": "Glutaminase activity in post-ischemic kidney tissues", "type": "in vivo, mouse", "settings": "post-ischemic kidney tissues at 24 h after IRI; JHU083 1.83 mg/kg i.p. every other day; P=0.008", "method": "To confirm that JHU083 suppressed glutamine-related enzymes in kidneys, glutaminase activities were measured in post-ischemic kidney tissues at 24 h after IRI.\nGlutamine antagonist, JHU083 was synthesized as previously described, Rais et al., 2016, and dissolved in 50 mM […] 4-(2-hydroxyethyl)-1-piperazineethanesulfonic acid (HEPES) buffered 0.9% saline. Aliquot stocks were stored at −80° C. and thawed right before injection. Before the IRI surgery or cisplatin injection, mice were administered 1.83 mg/kg JHU083 (equivalent to 1 mg/kg DON) or vehicle (50 mM HEPES buffered 0.9% saline) every other day via intraperitoneal injection. Following 4 consecutive dosages, mice underwent IRI surgery or cisplatin injection. The last additional dose was given at 24 h after IRI or cisplatin injection. This dosage regimen was chosen based on efficiency and toxicity data from a previous study. Hollinger et al., 2020.\nGlutaminase activity measurements in kidney samples were adapted from previously described protocols. Engler et al., 2002. […] [^3H]-Glutamate, the reaction product, was then eluted with 0.1 N HCl and analyzed for radioactivity using Perkin Elmer's TopCount instrument in conjunction with their 96-well LumaPlates. […]"}}, "data": [{"smiles": "CCOC(=O)[C@H](CCC(=O)C=[N+]=[N-])NC(=O)[C@@H](N)CC(C)C", "note": "[JHU083]", "values": [{"measurement": "phenotype of CD4+ and CD8+ T cells in steady-state kidneys", "setting": "kidney T cells", "value": "skewed toward naïve phenotypes with lower CD69, CD44, and Ki67 and higher CD62L"}, {"measurement": "tolerability of dosage regimen", "setting": "[1]", "value": "tolerable without significant toxicity"}, {"measurement": "glutaminase activities, decrease", "setting": "glutaminase", "value": 29, "unit": "%"}]}]}
